From patent US11571416B2, “Amodiaquine analogs and methods of uses thereof” (priority 2017, dated 2023)

Legend:
[1] = test system: EBOV-GFP (recombinant Ebolavirus encoding a GFP reporter gene); assay: microbe, parasite or virus in culture; type: cell-based; details: for IC50: Orthoebolavirus
[2] = Cytotoxicity, CellTiter-Glo Luminescent Cell Viability Assay; details: human, Huh7 cells

SMILES	antiviral activity / potency in words [1]	IC50 ([1]; Huh-7, 24 h) [nM]	further results
CCN(CC)Cc1cc(Nc2ccnc3cc(F)ccc23)ccc1O [Compound 5, 4-(7-fluoroquinolin-4-ylamino)-2-diethylaminomethylphenol]	weaker than amiodiaquine	2780 ± 280	
CCN(CC)Cc1cc(Nc2c3ccccc3nc3ccccc23)ccc1O [Compound 6, 4-(9-acridinylamino)-2-[(diethylamino)methyl]phenol]		1640 ± 220	
CN(Cc1cc(Nc2ccnc3cc(Cl)ccc23)ccc1O)C(C)(C)C [Compound 15, 4-(7-chloroquinolin-4-ylamino)-2-(tert-butylmethylamino)methylphenol]		1280 ± 70	CC50 at 24 h [2]: 41800 nM; Selectivity index [1]: 33; IC50 ([1]; Huh-7): 1280 nM
CCN(CCO)Cc1cc(Nc2ccnc3cc(Cl)ccc23)ccc1O [Compound 17, 4-(7-chloroquinolin-4-ylamino)-2-[ethyl(2-hydroxyethyl)amino]methylphenol]	did not decrease potency	1770 ± 180	
CCCCCCCCN(C)Cc1cc(Nc2ccnc3cc(I)ccc23)ccc1O [Compound 38, 4-(7-iodoquinolin-4-ylamino)-2-methyloctylaminomethylphenol]		260 ± 60	CC50 at 24 h [2]: > 100000 nM; Selectivity index [1]: >385; IC50 ([1]; Huh-7): 260 nM
CN1CCN(Cc2cc(Nc3ccnc4cc(Cl)ccc34)ccc2O)CC1 [Compound 13, 4-(7-chloroquinolin-4-ylamino)-2-(4-methyl-1-piperazinyl)methylphenol]	did not decrease potency	1680 ± 190	
CN(Cc1cc(Nc2ccnc3cc(I)ccc23)ccc1O)C(C)(C)C [Compound 33, 4-(7-iodoquinolin-4-ylamino)-2-tert-butylmethylaminomethylphenol]		300 ± 40	CC50 at 24 h [2]: 32300 nM; Selectivity index [1]: 108; IC50 ([1]; Huh-7): 300 nM
CCN(C)Cc1cc(Nc2ccnc3cc(Cl)ccc23)ccc1O [Compound 16, 4-(7-chloroquinolin-4-ylamino)-2-(ethylmethylamino)methylphenol]		2080 ± 220	
CN(Cc1cc(Nc2ccnc3cc(Cl)ccc23)ccc1O)c1ccccc1 [Compound 3]	reduced antiviral activity	6390 ± 930	
Oc1ccc(Nc2ccnc3cc(Cl)ccc23)cc1CN1CC[C@@H](O)C1 [Compound 22]	did not decrease potency	1730 ± 90	
C=CCN(CC=C)Cc1cc(Nc2ccnc3cc(Cl)ccc23)ccc1O [Compound 27, 4-(7-chloroquinolin-4-ylamino)-2-bis(2-propen-1-yl)aminomethylphenol]		2320 ± 320	
C#CCN(CC#C)Cc1cc(Nc2ccnc3cc(Cl)ccc23)ccc1O [Compound 1, 4-(7-chloroquinolin-4-ylamino)-2-bis(2-propyne-1-yl)aminomethylphenol]	reduced antiviral activity	5780 ± 1490	
CCN(CC)Cc1cc(Nc2ccnc3ccccc23)ccc1O [Compound 12, 2-[(diethylamino)methyl]-4-(quinolin-4-ylamino)phenol]		2140 ± 180	
CCN(CC)Cc1cc(Nc2ccnc3cc(Br)ccc23)ccc1O [Compound 4, 4-(7-bromoquinolin-4-ylamino)-2-diethylamino-methylphenol]		1550 ± 140	fold potency relative to amodiaquine [1]: 1.4 fold
Oc1ccc(Nc2ccnc3cc(Cl)ccc23)cc1CN1CCOCC1 [Compound 24]		6030 ± 410	
CCN(CC)Cc1cc(Nc2ccnc3cc(C(F)(F)F)ccc23)ccc1O [Compound 2]		5870 ± 1460	
Oc1ccc(Nc2ccnc3cc(Cl)ccc23)cc1CN1CCCC(O)C1 (centres unmarked) [Compound 19, 4-(7-chloroquinolin-4-ylamino)-2-(3-hydroxy-1-piperidinyl)methylphenol]	did not decrease potency	1800 ± 280	
CN(C)Cc1cc(Nc2ccnc3cc(Cl)ccc23)ccc1O [Compound 10, 4-(7-chloroquinolin-4-ylamino)-2-dimethylaminomethylphenol]		2140 ± 210	
